Reference: patent US20050169964A1, “Antibiotic calcium phosphate coating” (Howmedica Osteonics Corp., priority 2001, published 2005)

B1: OP-1® Osteogenic graft material: Osteogenic protein-1, a 36 kD homodimer protein in the TGI-β super-family; a bone morphogenic protein (protein, UniProt P18075 293-431, looked up)
Bone morphogenetic protein 7: STGSKQRSQNRSKTPKNQEALRMANVAENSSSDQRQACKKHELYVSFRDLGWQDWIIAPEGYAAYYCEGECAFPLNSYMNATNHAIVQTLVHFINPETVPKPCCAPTQLNAISVLYFDDSSNVILKKYRNMVVRACGCH
modifications: graft material
notes: Osteogenic protein-1, a 36 kD homodimer protein in the TGI-β super-family; a bone morphogenic protein

Legend:
[1] = test system: Staphylococcus aureus (ATCC strain #6538); assay: modified Kirby Bauer susceptibility model, zone of inhibition around antibiotic containing HA disk; type: cell-based; conditions: for Zone of Inhibition (mm): antibiotic absorbed into precipitated crystalline HA coating, Mueller-Hinton agar, 24 hr at 37° C.
Method: 1.2 Grams of tobramycin sulfate was dissolved in 12 milliliters of sterile deionized water (100 mg/ml). […] Ten (10) μl of solution was pipetted onto the surface of each of the […] coated disks and allowed to dry. […] The test coupons were then placed into a buffered saline at 37° C. immediately after the absorption process was completed. […] In the well-known Kirby Bauer Susceptibility Model test organisms were propagated and handled in accordance with ATCC recommendations for broth media, agar, and incubation specifications. […] Each seeded plate was challenged with both an antibiotic containing HA disk and a non-antibiotic containing HA disk, which served as a control. Samples were tested in duplicate (i.e., two plates per organism). Following incubation for 24 hr. at 37° C., the plates were examined for zones of inhibition around the disks. The zone of inhibition is defined as the distance between the test disk and the edge of bacterial growth. It is common for a hazy, or “ghost” zone to exist between the areas of complete inhibition and full bacterial growth. This “ghost” zone is the result of partial inhibition and is not included in the measurement of the zone of inhibition.

[2] = precipitation of OP-1 protein in solution; type: physicochemical
[3] = binding of [125I]OP-1 to PA coated titanium disks (scintillation counting); conditions: FIG. 3 time course
Method: Materials and Methods—Preparation of implant test articles: Titanium alloy (Ti6A14V) disks/coupons 5 mm in diameter and 3 mm thick were coated both sides with PA coating using the method of Example I. The thickness of the coating surface was determined by SEM to be nominally 20 μm to 50 μm.
Determination of the binding capacity of OP-1® Osteogenic graft material: A pre-mixed blend of unlabelled OP-1® Osteogenic graft material with iodine [^125I] for tracking purposes was used. The OP-1® Osteogenic graft material in a lactose solution was pipetted on PA coated disks in triplicate. A range of OP-1® Osteogenic graft material incubation time and concentration treatment was applied to determine the time-course and binding capacity of the graft material on the PA coated disk. Following the incubation, each coupon was washed with lactose solution and the washes were collected in a scintillation vial. 10 ml of the scintillation cocktail was added to each test article and wash sample and the scintillation counts were measured in a liquid scintillation counter (LSC) to calculate the amount of OP-1® Osteogenic graft material bound to the PA coated disk.

[4] = test system: adductor muscles (intramuscular pouch); type: in vivo, Long-Evans male rats
From the text: In-vivo study of OP-1® Osteogenic graft material coated implants: Freshly reconstituted OP-1® Osteogenic graft material in lactose solution was loaded onto each surface of the PA coated disk using sterile pipettes. The solution evenly spaced across the dry surface and was completely absorbed. Sixteen Long-Evans male rats with body weight 300-390 g were used in the study. The animals were anesthetized and an incision was made on the medial thigh to prepare intramuscular pouch within the adductor muscles for placement of the implant articles, on both contra-lateral limbs. A total of 32 implants were divided into 4 groups: (A) titanium disks; (B) titanium disks coated with PA, (C) titanium disks coated with PA plus OP-1® Osteogenic graft material (40 μg), (D) OP-1® Osteogenic graft material solution (40 μg). For Group C, the OP-1® Osteogenic graft material solution was directly pipeted on each Ti disk immediately before implantation. The solution was absorbed within 1 minute. For Group D, OP-1® Osteogenic graft material solution was dropped into the muscular pouch. The same amount of identical carrier solution for OP-1® Osteogenic graft material was loaded on disks of Groups A and B. After implantation, the pouch was closed with 3-0 chromic sutures, and the wound was closed in layers. The rats were housed individually and allowed unrestricted activity immediately after […]. All the animals were sacrificed 4 weeks postoperatively. The complete limb was disarticulated from hip joint and x-rayed. The implants with their surrounding tissues were retrieved. All implants were processed for undecalcified thin section histology using EXAKT technique. The slides were stained with Stevenel's blue/van Gieson's picrofuchsin method for histological analysis. Bone was stained in red color and fibrous tissue in blue. Half of the specimens of Group D were decalcified and embedded in paraffin. Sections were stained with hematoxylin and eosin.

Row | Molecule | Zone of Inhibition (mm) [1] [mm] | also measured
1 | N[C@@H](C(=O)N[C@@H]1C(=O)N2C(C(=O)O)=C(Cl)CS[C@H]12)c1ccccc1 [Cefaclor] | 20.5 | 
2 | Cn1nnnc1SCC1=C(C(=O)O)N2C(=O)[C@@H](NC(=O)[C@H](O)c3ccccc3)[C@H]2SC1 [Cefamandole] | 25 | 
3 | CC1=C(C(=O)O)N2C(=O)[C@@H](NC(=O)[C@H](N)c3ccccc3)[C@H]2SC1 [Cephalexin] | 19 | 
4 | CC(=O)OCC1=C(C(=O)O)N2C(=O)[C@@H](NC(=O)CCC[C@@H](N)C(=O)O)[C@H]2SC1 [Cephalosporin C] | 11.5 | 
5 | O=C(O)c1cn(C2CC2)c2cc(N3CCNCC3)c(F)cc2c1=O [Ciprofloxacin] | 15.5 | 
6 | NC[C@H]1O[C@H](O[C@H]2[C@H](O)[C@@H](O[C@H]3O[C@H](CO)[C@@H](O)[C@H](N)[C@H]3O)[C@H](N)C[C@@H]2N)[C@H](N)C[C@@H]1O [Tobramycin] | 10 | biological activity of released antibiotic ([1]; after absorption into the hydroxyapatite structure): remained biologically active
7 | CN[C@H](CC(C)C)C(=O)N[C@H]1C(=O)N[C@@H](CC(N)=O)C(=O)N[C@H]2C(=O)N[C@H]3C(=O)N[C@H](C(=O)N[C@H](C(=O)O)c4cc(O)cc(O)c4-c4cc3ccc4O)[C@H](O)c3ccc(c(Cl)c3)Oc3cc2cc(c3O[C@@H]2O[C@H](CO)[C@@H](O)[C@H](O)[C@H]2O[C@H]2C[C@](C)(N)[C@H](O)[C@H](C)O2)Oc2ccc(cc2Cl)[C@H]1O [Vancomycin] | 10.5 | 
8 | Penicillin [Penicillin Benzathine] | 22.5 | 
9 | Penicillin [Penicillin Potassium Salt] | 29 | 
10 | Penicillin [Penicillin Procaine] | 26.5 | 
11 | Penicillin [Penicillin Sodium Salt] | 28 | 
12 | B1 |  | concentration over which protein spontaneously precipitates [2]: over 5 mg/mL; time after loading at which maximal binding to PA is achieved [3]: 5 h; extension of new bone surrounding the disks ([4]; Group C: titanium disks coated with PA plus OP-1 (40 μg), radiographic, 4 weeks): ≤ 10 mm; inflammation in the specimens ([4]; rat, in vivo): no inflammation; incidence of bone formation ([4]; the two groups treated with OP-1 (40 μg; Groups C and D), 4 weeks): 100%
